Experimental data from paper doi:10.1101/2023.12.04.569845, “Identification of 4-(6-((2-methoxyphenyl)amino)pyrazin-2-yl)benzoic acids as CSNK2A inhibitors with antiviral activity and improved selectivity over PIM3” (bioRxiv, 2023).
Where two headings read alike, the source gives them in different places. One block for each compound: values may come before it.

What was measured:
Experiment in all cases: biochemical
Set-up in all cases: Thermal shift (DSF, SYPRO Orange) Tm shift of recombinant kinase domains at 10 uM compound
[1] = biological target: T1, DCAMKL1 (Homo sapiens, UniProt O15075)
T1 construct: gene DCLK1
T1 sequence (O15075 1-740): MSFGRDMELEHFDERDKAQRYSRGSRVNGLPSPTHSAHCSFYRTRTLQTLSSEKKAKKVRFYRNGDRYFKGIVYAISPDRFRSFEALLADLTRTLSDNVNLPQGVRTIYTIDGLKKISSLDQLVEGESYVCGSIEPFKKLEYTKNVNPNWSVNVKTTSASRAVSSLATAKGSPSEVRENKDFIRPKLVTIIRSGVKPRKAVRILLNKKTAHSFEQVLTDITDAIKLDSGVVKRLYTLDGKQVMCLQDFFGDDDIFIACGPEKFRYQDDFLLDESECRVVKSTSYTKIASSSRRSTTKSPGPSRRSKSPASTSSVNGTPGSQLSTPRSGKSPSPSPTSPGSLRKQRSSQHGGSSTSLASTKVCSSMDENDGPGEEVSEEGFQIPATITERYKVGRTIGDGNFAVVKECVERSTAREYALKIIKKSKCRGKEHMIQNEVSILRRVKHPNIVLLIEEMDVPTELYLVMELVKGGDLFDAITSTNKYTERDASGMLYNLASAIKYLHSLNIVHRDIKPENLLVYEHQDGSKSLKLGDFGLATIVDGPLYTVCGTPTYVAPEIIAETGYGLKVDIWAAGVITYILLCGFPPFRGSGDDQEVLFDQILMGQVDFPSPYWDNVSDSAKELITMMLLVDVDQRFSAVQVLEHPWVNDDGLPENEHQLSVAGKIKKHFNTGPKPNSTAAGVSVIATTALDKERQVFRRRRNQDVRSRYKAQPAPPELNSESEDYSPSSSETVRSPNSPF
Procedure: (§1) S23 Thermal stability kinase selectivity. The assay was performed as previously described. 9,10 Briefly, recombinant protein kinase domains at a concentration of 2 μM were mixed with 10 μM compound in a buffer containing 20 mM HEPES, pH 7.5, and 500 mM NaCl. SYPRO Orange (5000×, Invitrogen) was added as a fluorescence probe (1 µl per mL). Subsequently, temperature-dependent protein unfolding profiles were measured using the QuantStudio™ 5 realtime PCR machine (Thermo Fisher). […] The temperature was raised with a step rate of 3°C per minute. Data points were analysed with the internal software (Thermal Shift SoftwareTM Version 1.4, Thermo Fisher) using the Boltzmann equation to determine the inflection point of the transition curve.

[2] = biological target: FGFR1 (Homo sapiens, UniProt P11362)
Procedure: as §1

[3] = biological target: T2, GAK (Homo sapiens, UniProt O14976)
T2 sequence (O14976 1-1311): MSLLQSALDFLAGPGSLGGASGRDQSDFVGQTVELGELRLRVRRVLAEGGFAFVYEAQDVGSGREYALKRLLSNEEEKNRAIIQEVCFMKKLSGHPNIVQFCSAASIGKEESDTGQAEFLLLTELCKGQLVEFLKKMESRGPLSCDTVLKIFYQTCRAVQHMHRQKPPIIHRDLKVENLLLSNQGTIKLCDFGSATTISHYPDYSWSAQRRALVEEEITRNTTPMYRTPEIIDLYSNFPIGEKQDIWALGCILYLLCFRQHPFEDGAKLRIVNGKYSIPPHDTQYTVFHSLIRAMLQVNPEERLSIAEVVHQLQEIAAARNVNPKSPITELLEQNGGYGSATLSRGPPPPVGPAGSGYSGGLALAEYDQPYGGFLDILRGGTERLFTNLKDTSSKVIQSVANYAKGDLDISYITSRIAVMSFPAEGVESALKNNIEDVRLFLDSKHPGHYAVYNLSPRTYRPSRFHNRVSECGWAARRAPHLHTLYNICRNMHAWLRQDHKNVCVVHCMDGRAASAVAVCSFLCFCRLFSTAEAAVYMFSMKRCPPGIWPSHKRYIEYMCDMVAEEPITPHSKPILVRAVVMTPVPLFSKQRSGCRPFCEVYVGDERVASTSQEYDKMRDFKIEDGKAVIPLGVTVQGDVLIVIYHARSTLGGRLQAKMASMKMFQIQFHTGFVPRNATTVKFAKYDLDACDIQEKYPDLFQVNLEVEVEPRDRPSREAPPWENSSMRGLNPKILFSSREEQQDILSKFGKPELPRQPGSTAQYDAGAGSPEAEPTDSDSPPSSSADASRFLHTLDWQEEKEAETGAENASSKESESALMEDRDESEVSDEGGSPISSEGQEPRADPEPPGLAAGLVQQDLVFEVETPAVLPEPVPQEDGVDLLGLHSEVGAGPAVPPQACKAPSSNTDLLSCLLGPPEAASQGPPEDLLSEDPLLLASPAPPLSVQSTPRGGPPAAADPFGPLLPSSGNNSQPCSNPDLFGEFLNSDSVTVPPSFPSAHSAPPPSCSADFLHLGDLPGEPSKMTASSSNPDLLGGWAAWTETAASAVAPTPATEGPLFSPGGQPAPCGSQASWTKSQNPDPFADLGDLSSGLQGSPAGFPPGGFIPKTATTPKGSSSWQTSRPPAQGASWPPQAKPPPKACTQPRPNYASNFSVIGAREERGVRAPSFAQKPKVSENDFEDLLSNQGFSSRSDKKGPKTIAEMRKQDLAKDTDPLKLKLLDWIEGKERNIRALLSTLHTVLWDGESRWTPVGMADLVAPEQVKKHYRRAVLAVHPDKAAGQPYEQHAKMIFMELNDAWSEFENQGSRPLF
Procedure: as §1

[4] = biological target: T3, MAP2K6 (Homo sapiens, UniProt P52564)
T3 sequence (P52564 1-334): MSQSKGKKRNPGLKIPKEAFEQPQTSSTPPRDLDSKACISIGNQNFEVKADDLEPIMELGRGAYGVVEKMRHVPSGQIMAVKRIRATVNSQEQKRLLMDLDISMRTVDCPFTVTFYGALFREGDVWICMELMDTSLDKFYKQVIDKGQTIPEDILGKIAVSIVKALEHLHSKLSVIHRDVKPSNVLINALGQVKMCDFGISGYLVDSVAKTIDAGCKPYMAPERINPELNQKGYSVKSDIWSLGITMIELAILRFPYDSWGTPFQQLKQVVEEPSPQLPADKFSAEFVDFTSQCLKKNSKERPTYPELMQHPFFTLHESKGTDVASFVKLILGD
Procedure: as §1

[5] = biological target: T4, MRCKa (Homo sapiens, UniProt Q5VT25)
T4 construct: gene CDC42BPA
Procedure: as §1

[6] = biological target: T5, NDR2 (Homo sapiens, UniProt Q9Y2H1)
T5 construct: gene STK38L
T5 sequence (Q9Y2H1 whole entry): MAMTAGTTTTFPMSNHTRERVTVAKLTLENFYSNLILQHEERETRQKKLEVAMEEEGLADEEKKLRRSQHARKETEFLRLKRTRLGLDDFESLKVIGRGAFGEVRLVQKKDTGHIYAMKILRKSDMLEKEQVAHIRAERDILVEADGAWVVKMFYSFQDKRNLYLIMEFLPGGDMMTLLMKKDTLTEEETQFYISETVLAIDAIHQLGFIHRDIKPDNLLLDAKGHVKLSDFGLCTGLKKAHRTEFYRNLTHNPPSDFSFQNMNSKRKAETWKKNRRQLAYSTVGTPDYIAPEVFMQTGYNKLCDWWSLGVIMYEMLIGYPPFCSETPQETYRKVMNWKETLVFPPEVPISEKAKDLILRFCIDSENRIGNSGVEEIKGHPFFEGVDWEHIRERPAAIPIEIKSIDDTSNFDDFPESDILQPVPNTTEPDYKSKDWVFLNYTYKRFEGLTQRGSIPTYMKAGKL
Procedure: as §1

Sequence of FGFR1 (P11362 whole entry): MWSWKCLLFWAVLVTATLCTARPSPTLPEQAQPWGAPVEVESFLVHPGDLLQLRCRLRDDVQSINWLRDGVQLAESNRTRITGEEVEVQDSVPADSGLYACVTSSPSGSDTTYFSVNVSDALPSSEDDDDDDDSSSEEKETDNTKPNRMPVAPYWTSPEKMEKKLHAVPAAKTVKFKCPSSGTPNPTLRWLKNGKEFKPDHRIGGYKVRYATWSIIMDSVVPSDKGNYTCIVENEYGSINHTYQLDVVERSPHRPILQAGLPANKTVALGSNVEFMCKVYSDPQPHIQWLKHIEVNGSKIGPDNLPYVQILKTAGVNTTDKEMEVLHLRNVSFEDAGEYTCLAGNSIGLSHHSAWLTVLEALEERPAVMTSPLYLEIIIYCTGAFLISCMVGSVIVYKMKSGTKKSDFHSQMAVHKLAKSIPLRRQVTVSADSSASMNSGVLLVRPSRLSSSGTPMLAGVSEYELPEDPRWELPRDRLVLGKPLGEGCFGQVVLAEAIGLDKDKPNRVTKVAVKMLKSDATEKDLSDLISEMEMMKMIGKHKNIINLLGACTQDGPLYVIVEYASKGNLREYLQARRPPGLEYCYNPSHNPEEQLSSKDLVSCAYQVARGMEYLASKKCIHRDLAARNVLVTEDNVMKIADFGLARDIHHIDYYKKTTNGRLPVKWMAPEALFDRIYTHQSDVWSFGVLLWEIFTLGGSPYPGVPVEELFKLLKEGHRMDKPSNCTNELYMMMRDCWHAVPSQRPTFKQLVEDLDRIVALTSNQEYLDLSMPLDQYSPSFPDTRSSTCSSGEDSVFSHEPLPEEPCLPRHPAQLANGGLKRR
T4 sequence (Q5VT25 whole entry): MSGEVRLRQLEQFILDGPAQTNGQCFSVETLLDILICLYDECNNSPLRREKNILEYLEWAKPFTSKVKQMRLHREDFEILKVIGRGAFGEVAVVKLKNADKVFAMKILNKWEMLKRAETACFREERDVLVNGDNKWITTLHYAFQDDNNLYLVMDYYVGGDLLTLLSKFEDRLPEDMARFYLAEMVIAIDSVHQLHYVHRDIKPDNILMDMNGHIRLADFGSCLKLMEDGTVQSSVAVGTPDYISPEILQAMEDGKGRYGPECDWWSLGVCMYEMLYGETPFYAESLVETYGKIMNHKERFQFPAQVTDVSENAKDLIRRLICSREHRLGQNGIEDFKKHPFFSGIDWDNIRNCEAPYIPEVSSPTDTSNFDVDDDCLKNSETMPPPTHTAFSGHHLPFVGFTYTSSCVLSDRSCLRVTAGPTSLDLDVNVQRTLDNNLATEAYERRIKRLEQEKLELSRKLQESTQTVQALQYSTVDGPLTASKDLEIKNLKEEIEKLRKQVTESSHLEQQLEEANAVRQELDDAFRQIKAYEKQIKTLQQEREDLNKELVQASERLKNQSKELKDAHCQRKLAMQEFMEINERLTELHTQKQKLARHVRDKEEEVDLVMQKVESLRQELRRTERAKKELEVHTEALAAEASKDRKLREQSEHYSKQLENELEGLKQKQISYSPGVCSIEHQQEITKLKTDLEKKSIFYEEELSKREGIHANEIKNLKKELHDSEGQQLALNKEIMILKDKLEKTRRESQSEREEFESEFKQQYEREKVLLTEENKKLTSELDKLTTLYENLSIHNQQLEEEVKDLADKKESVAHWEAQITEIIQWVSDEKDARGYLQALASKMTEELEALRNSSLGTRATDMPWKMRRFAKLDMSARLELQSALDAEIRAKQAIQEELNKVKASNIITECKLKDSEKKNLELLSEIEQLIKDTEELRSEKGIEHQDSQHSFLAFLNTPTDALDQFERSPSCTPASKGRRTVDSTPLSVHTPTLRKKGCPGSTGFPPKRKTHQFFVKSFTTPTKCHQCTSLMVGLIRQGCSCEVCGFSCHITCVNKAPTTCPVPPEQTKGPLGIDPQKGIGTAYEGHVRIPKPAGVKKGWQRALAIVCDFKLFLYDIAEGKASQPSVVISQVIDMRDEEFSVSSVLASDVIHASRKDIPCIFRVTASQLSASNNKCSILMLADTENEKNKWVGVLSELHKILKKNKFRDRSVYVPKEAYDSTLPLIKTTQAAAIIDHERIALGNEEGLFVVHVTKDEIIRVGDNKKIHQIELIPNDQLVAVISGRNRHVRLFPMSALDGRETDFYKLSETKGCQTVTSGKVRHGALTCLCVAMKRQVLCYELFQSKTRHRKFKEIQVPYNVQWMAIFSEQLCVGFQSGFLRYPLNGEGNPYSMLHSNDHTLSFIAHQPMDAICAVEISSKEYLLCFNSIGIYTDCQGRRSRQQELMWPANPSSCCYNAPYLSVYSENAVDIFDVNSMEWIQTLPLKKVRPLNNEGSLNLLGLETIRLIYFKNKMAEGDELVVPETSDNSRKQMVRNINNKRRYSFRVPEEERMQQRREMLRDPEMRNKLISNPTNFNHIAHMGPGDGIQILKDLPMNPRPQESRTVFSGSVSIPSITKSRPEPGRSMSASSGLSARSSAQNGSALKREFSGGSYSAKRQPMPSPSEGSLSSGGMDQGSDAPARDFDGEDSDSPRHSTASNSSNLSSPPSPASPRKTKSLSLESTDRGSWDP

- ΔTm at 10 µM ([1]; read-out: 7c): 3 °C
- ΔTm at 10 µM ([2]; read-out: 7c): 0 °C
- ΔTm at 10 µM ([3]; read-out: 7c): 7 °C
- ΔTm at 10 µM ([4]; read-out: 7c): 0 °C
- ΔTm at 10 µM ([5]; read-out: 7c): 0 °C
- ΔTm at 10 µM ([6]; read-out: 7c): -1 °C
SMILES: COc1ccc(OC(C)C)cc1Nc1cncc(-c2ccc(C(=O)O)cc2)n1 [7c]

- ΔTm at 10 µM ([1]; read-out: 6c): 3 °C
- ΔTm at 10 µM ([2]; read-out: 6c): 0 °C
- ΔTm at 10 µM ([3]; read-out: 6c): 9 °C
- ΔTm at 10 µM ([4]; read-out: 6c): 3 °C
- ΔTm at 10 µM ([5]; read-out: 6c): -1 °C
- ΔTm at 10 µM ([6]; read-out: 6c): -1 °C
SMILES: CC(C)Oc1ccc2ccn(-c3cncc(-c4ccc(C(=O)O)cc4)n3)c2c1 [6c]

- ΔTm at 10 µM ([1]; read-out: 2): 4 °C
- ΔTm at 10 µM ([2]; read-out: 2): 1 °C
- ΔTm at 10 µM ([3]; read-out: 2): 11 °C
- ΔTm at 10 µM ([4]; read-out: 2): 2 °C
- ΔTm at 10 µM ([5]; read-out: 2): 0 °C
- ΔTm at 10 µM ([6]; read-out: 2): -2 °C
SMILES: CC(C)Nc1ccc2cnn(-c3cncc(-c4ccc(C(=O)O)cc4)n3)c2c1 [compound 2, 2]
